From ChEMBL document CHEMBL2401651, “Discovery of novel P2 substituted 4-biaryl proline inhibitors of hepatitis C virus NS3 serine protease” (Bioorg Med Chem Lett, 2013)

Columns and labels:
Hepatitis C virus = test: Antiviral activity against Hepatitis C virus infected in human […] cells after 72 hrs by luciferase reporter gene assay; assay type: functional, organism-based, Hepacivirus hominis
[1] = Inhibition of Hepatitis C virus genotype 1 NS3 protease
[2] = Permeability of the compound in human Caco2 cells; assay type: ADME, cell-based; details: Caco-2, read-out: permeability
[3] = Half life in human liver microsomes; assay type: ADME, Microsome

EC50 (Hepatitis C virus) [nM] | IC50 [1] [nM] | Papp [2] [×10⁻⁶ cm/s] | half-life [3] [h] | SMILES | Ki [1] [nM]
235 | 1.8 | – | – | C=C[C@@H]1C[C@]1(NC(=O)[C@@H]1C[C@@H](c2csc(-c3ccccc3F)n2)CN1C(=O)[C@@H](NC(=O)OC1CCCC1)C(C)(C)C)C(=O)NS(=O)(=O)C1CC1 | –
9 | 1.1 | 12 | 0.95 | C=C[C@@H]1C[C@]1(NC(=O)[C@@H]1C[C@@H](c2csc(-c3cc(OC)ccc3OC)n2)CN1C(=O)[C@@H](NC(=O)OC1CCCC1)C(C)(C)C)C(=O)NS(=O)(=O)C1(C)CC1 | –
2200 | 17 | – | – | C=C[C@@H]1C[C@]1(NC(=O)[C@@H]1C[C@@H](c2csc(-c3c(OC)cccc3OC)n2)CN1C(=O)[C@@H](NC(=O)OC1CCCC1)C(C)(C)C)C(=O)NS(=O)(=O)C1CC1 | –
37 | 0.78 | – | – | C=C[C@@H]1C[C@]1(NC(=O)[C@@H]1C[C@@H](c2csc(-c3ccccc3OCC)n2)CN1C(=O)[C@@H](NC(=O)OC1CCCC1)C(C)(C)C)C(=O)NS(=O)(=O)C1CC1 | –
89 | 2.2 | – | – | C=C[C@@H]1C[C@]1(NC(=O)[C@@H]1C[C@@H](c2csc(-c3ccc(OC)cc3OC)n2)CN1C(=O)[C@@H](NC(=O)OC1CCCC1)C(C)(C)C)C(=O)NS(=O)(=O)C1CC1 | –
28 | 1.1 | – | – | C=C[C@@H]1C[C@]1(NC(=O)[C@@H]1C[C@@H](c2csc(-c3cc(F)ccc3OC)n2)CN1C(=O)[C@@H](NC(=O)OC1CCCC1)C(C)(C)C)C(=O)NS(=O)(=O)C1CC1 | –
320 | 2.5 | 0.7 | 0.1 | C=C[C@@H]1C[C@]1(NC(=O)[C@@H]1C[C@@H](n2cc(-c3ccccc3)c(C)n2)CN1C(=O)[C@@H](NC(=O)OC1CCCC1)C(C)(C)C)C(=O)NS(=O)(=O)C1CC1 | –
1340 | 1.8 | 0.2 | 3.68 | C=C[C@@H]1C[C@]1(NC(=O)[C@@H]1C[C@@H](n2cnc(-c3ccccc3)c2)CN1C(=O)[C@@H](NC(=O)OC1CCCC1)C(C)(C)C)C(=O)NS(=O)(=O)C1CC1 | –
240 | 4.1 | – | – | C=C[C@@H]1C[C@]1(NC(=O)[C@@H]1C[C@@H](c2csc(-c3cccc(OC)c3OC)n2)CN1C(=O)[C@@H](NC(=O)OC1CCCC1)C(C)(C)C)C(=O)NS(=O)(=O)C1CC1 | –
580 | 3.2 | 4.4 | 2.38 | C=C[C@@H]1C[C@]1(NC(=O)[C@@H]1C[C@@H](c2nc(-c3ccccc3)cs2)CN1C(=O)[C@@H](NC(=O)OC1CCCC1)C(C)(C)C)C(=O)NS(=O)(=O)C1CC1 | –
140 | 3.4 | – | – | C=C[C@@H]1C[C@]1(NC(=O)[C@@H]1C[C@@H](c2csc(-c3cccc(OC)c3)n2)CN1C(=O)[C@@H](NC(=O)OC1CCCC1)C(C)(C)C)C(=O)NS(=O)(=O)C1CC1 | –
430 | 2.7 | 1.1 | 1.57 | C=C[C@@H]1C[C@]1(NC(=O)[C@@H]1C[C@@H](n2cc(-c3ccccc3)nn2)CN1C(=O)[C@@H](NC(=O)OC1CCCC1)C(C)(C)C)C(=O)NS(=O)(=O)C1CC1 | –
175 | 2.7 | 4.6 | 2.25 | C=C[C@@H]1C[C@]1(NC(=O)[C@@H]1C[C@@H](c2csc(-c3ccccc3)n2)CN1C(=O)[C@@H](NC(=O)OC1CCCC1)C(C)(C)C)C(=O)NS(=O)(=O)C1CC1 | –
530 | 5.2 | – | – | C=C[C@@H]1C[C@]1(NC(=O)[C@@H]1C[C@@H](c2csc(-c3ccc(OC)cc3)n2)CN1C(=O)[C@@H](NC(=O)OC1CCCC1)C(C)(C)C)C(=O)NS(=O)(=O)C1CC1 | –
915 | 12 | – | – | C=C[C@@H]1C[C@]1(NC(=O)[C@@H]1C[C@@H](c2csc(-c3cccnc3)n2)CN1C(=O)[C@@H](NC(=O)OC1CCCC1)C(C)(C)C)C(=O)NS(=O)(=O)C1CC1 | –
35 | 0.74 | – | – | C=C[C@@H]1C[C@]1(NC(=O)[C@@H]1C[C@@H](c2csc(-c3ccccc3OC)n2)CN1C(=O)[C@@H](NC(=O)OC1CCCC1)C(C)(C)C)C(=O)NS(=O)(=O)C1CC1 | –
16 | 0.9 | 7 | 1.15 | C=C[C@@H]1C[C@]1(NC(=O)[C@@H]1C[C@@H](c2csc(-c3cc(OC)ccc3OC)n2)CN1C(=O)[C@@H](NC(=O)OC1CCCC1)C(C)(C)C)C(=O)NS(=O)(=O)C1CC1 | 0.23
800 | 6 | – | – | C=C[C@@H]1C[C@]1(NC(=O)[C@@H]1C[C@@H](c2csc(-c3ccccc3C)n2)CN1C(=O)[C@@H](NC(=O)OC1CCCC1)C(C)(C)C)C(=O)NS(=O)(=O)C1CC1 | –
27 | 1.7 | – | – | C=C[C@@H]1C[C@]1(NC(=O)[C@@H]1C[C@@H](c2csc(-c3cc(C)ccc3OC)n2)CN1C(=O)[C@@H](NC(=O)OC1CCCC1)C(C)(C)C)C(=O)NS(=O)(=O)C1CC1 | –
